{"source": "ChEMBL document CHEMBL6127107", "about": "“Oleanolic acid derivatives against drug-resistant bacteria and fungi by multi-targets to avoid drug resistance” (Eur J Med Chem, 2024)", "key": {"Candida albicans": {"system": "Candida albicans", "assay": "Antimicrobial activity against fluconazole-resistant Candida albicans", "assay_type": "functional"}, "Staphylococcus aureus [1]": {"system": "Staphylococcus aureus", "assay": "Synergistic antibacterial activity against methicillin-resistant Staphylococcus aureus assessed as fractional inhibitory concentration index in presence of chlorpromazine", "assay_type": "functional"}, "Staphylococcus aureus [2]": {"system": "Staphylococcus aureus", "assay": "Synergistic antibacterial activity against methicillin-resistant Staphylococcus aureus assessed as fractional inhibitory concentration index in presence of vancomycin", "assay_type": "functional"}, "Pseudomonas aeruginosa": {"system": "Pseudomonas aeruginosa", "assay": "Antimicrobial activity against Pseudomonas aeruginosa", "assay_type": "functional"}, "Staphylococcus aureus [3]": {"system": "Staphylococcus aureus", "assay": "Synergistic antibacterial activity against methicillin-resistant Staphylococcus aureus assessed as fractional inhibitory concentration index in presence of polymyxin B", "assay_type": "functional, organism-based"}, "Staphylococcus aureus [4]": {"system": "Staphylococcus aureus", "assay": "Synergistic antibacterial activity against methicillin-resistant Staphylococcus aureus assessed as fractional inhibitory concentration index in presence of azithromycin", "assay_type": "functional"}, "Staphylococcus aureus [5]": {"system": "Staphylococcus aureus", "assay": "Antibacterial activity against methicillin-resistant Staphylococcus aureus at sub-MIC measured after 20 days of continuous passage", "assay_type": "functional, organism-based", "details": "time 20.0 day"}, "Staphylococcus aureus [6]": {"system": "Staphylococcus aureus", "assay": "Antibacterial activity against methicillin-resistant Staphylococcus aureus infected in cyclophosphamide-injected Kunming mouse model of skin wound infection assessed as reduction in bacterial load in skin at 2 mg/kg measured after 7 days", "assay_type": "functional", "details": "time 7 day"}, "Staphylococcus aureus [7]": {"system": "Staphylococcus aureus", "assay": "Synergistic antibacterial activity against methicillin-resistant Staphylococcus aureus assessed as fractional inhibitory concentration index in presence of fluconazole", "assay_type": "functional"}, "DNA": {"system": "DNA", "assay": "Binding affinity to methicillin-resistant Staphylococcus aureus DNA assessed as effect on helical structure by measuring change in positive and negative peaks at 10 to 40 microg/ml by CD spectra", "assay_type": "nucleic-acid assay", "details": "dose 10-40 µg/ml"}, "Staphylococcus aureus [8]": {"system": "Staphylococcus aureus", "assay": "Antibacterial activity against methicillin-resistant Staphylococcus aureus infected in cyclophosphamide-injected Kunming mouse model of skin wound infection assessed as increase in body weight at 2 to 4 mg/kg measured after 3 days", "assay_type": "functional, organism-based", "details": "dose 2-4 mg/kg, time 3.0 day"}, "Staphylococcus aureus [9]": {"system": "Staphylococcus aureus", "assay": "Selectivity ratio of MBEC for methicillin-resistant Staphylococcus aureus to MIC for methicillin resistant Staphylococcus aureus", "assay_type": "functional"}, "Staphylococcus aureus [10]": {"system": "Staphylococcus aureus", "assay": "Antibacterial activity against methicillin-resistant Staphylococcus aureus infected in cyclophosphamide-injected Kunming mouse model of skin wound infection assessed as increase in IL-10 level in skin at 1 to 4 mg/kg administered for 7 days and measured on day 8", "assay_type": "functional, organism-based", "details": "dose 1-4 mg/kg, time 8.0 day"}}, "note": "The source made the active and inactive calls. No cut-off for these calls is given here.", "data": [{"compound": "CC(=O)O[C@H]1CC[C@]2(C)[C@H]3CC=C4[C@@H]5CC(C)(C)CC[C@]5(C(=O)NCCCNC(=N)N)CC[C@@]4(C)[C@]3(C)CC[C@H]2C1(C)C", "values": [{"measurement": "MIC", "setting": "Candida albicans", "result": 1, "unit": "µg/mL"}, {"measurement": "Activity", "setting": "Staphylococcus aureus [1]", "result": "Active"}, {"measurement": "Activity", "setting": "Staphylococcus aureus [2]", "result": "Active"}, {"measurement": "MIC", "setting": "Pseudomonas aeruginosa", "result": "> 64", "unit": "µg/mL"}, {"measurement": "Activity", "setting": "Staphylococcus aureus [3]", "result": "Active"}, {"measurement": "fractional inhibitory concentration index (FICI)", "setting": "Staphylococcus aureus [4]", "result": 0.188}, {"measurement": "Activity", "setting": "Staphylococcus aureus [5]", "result": "Active"}, {"measurement": "Activity", "setting": "Staphylococcus aureus [6]", "result": 1.24, "unit": "log10CFU/mg"}, {"measurement": "Activity", "setting": "Staphylococcus aureus [7]", "result": "Active"}, {"measurement": "Activity", "setting": "DNA", "result": "Active"}, {"measurement": "Activity", "setting": "Staphylococcus aureus [8]", "result": "Active"}, {"measurement": "selectivity ratio", "setting": "Staphylococcus aureus [9]", "result": 16}, {"measurement": "Activity", "setting": "Staphylococcus aureus [10]", "result": "Active"}]}]}
